In patent publication US20260248950A1, “ANTIMICROBIAL PEPTIDE DELIVERY SYSTEM AND MANUFACTURING METHOD BASED ON GOLD NANOPARTICLE-APTAMER CONJUGATE” (NES BIOTECHNOLOGY CO., LTD., priority 2022, published 2026) one finds MIC and FoldChange data, which are given here for seven molecules.

Values after ≈ are worked out from the molar mass of the structure shown. Read-outs that look alike come from different tables or passages of the source. Peptide text beside a SMILES is read from it. {SH} = thiol modification, used to bind gold nanoparticles

The test system of one series is Acinetobacter baumannii. The series can be described thus: microbe, parasite or virus in culture. The format is cell-based. The procedure:
(§1) An experiment was conducted to determine the minimum inhibitory concentration (MIC) for multi-resistant strains in an antimicrobial activity test. Pseudomonas aeruginosa, Acinetobacter baumannii, and Staphylococcus aureus were cultured in LB medium at 1×10^3 colony-forming units (CFU)/ml. Each strain was treated with WLBU2 peptide and antibiotics, such as ampicillin and erythromycin, at concentrations of 2, 4, 8, 16, 32, 64, 128, 256, and 512 μM, respectively, and then incubated at 37° C. for 18 to 24 hours.
(§2) The minimum inhibitory concentration (MIC) was determined as the […].

For another series, the system named is Pseudomonas aeruginosa. The series is described as follows: microbe, parasite or virus in culture. Format: cell-based. The procedure: as §1, §2
The test system of another series is Staphylococcus aureus. The series is described as follows: microbe, parasite or virus in culture. Format: cell-based. How it is done: as §1, §2
The subject of the next series is WLBU2. The series can be described thus: SELEX aptamer selection, sequencing fold change of samples binding to WLBU2 vs control. Conditions: samples binding to WLBU2 compared to the control group; SELEX repeated 11 times. How it is done: Aptamers specific to the antimicrobial peptide WLBU2 were developed using the SELEX (Systematic Evolution of Ligands by Exponential Enrichment) method. The SELEX process was repeated a total of 11 times, and the optimal aptamers with high binding affinity to WLBU2 were selected. The aptamer selection process was conducted according to the procedure illustrated in FIG. 1.
Among all the sequences confirmed through sequencing, four representative sequences showing a fold change greater than 2-fold in the samples binding to WLBU2 compared to the control group were developed.

Where [1] appears, read: Pseudomonas aeruginosa, LB medium, 1×10^3 CFU/ml, 37° C., 18 to 24 hours.

For the molecule `CC[C@H]1OC(=O)[C@H](C)[C@@H](O[C@H]2C[C@@](C)(OC)[C@@H](O)[C@H](C)O2)[C@H](C)[C@@H](O[C@@H]2O[C@H](C)C[C@H](N(C)C)[C@H]2O)[C@](C)(O)C[C@@H](C)C(=O)[C@H](C)[C@@H](O)[C@]1(C)O` [Erythromycin, erythromycin], the MIC with Acinetobacter baumannii (Acinetobacter baumannii, LB medium, 1×10^3 CFU/ml, 37° C., 18 to 24 hours, read-out: MIC) was more than 256 µM; with Pseudomonas aeruginosa (setting [1]) it was more than 64 µM; with Staphylococcus aureus (Staphylococcus aureus, LB medium, 1×10^3 CFU/ml, 37° C., 18 to 24 hours, read-out: MIC), more than 128 µM.
With `CC(C)[C@H](NC(=O)[C@H](Cc1c[nH]c2ccccc12)NC(=O)[C@H](CCCNC(=N)N)NC(=O)[C@H](CCCNC(=N)N)NC(=O)[C@@H](NC(=O)[C@@H](NC(=O)[C@H](CCCNC(=N)N)NC(=O)[C@@H](NC(=O)[C@@H](NC(=O)[C@H](CCCNC(=N)N)NC(=O)[C@H](CCCNC(=N)N)NC(=O)[C@@H](NC(=O)[C@H](Cc1c[nH]c2ccccc12)NC(=O)[C@H](CCCNC(=N)N)NC(=O)[C@H](CCCNC(=N)N)NC(=O)[C@@H](NC(=O)[C@H](CCCNC(=N)N)NC(=O)[C@H](CCCNC(=N)N)NC(=O)[C@@H](NC(=O)[C@H](Cc1c[nH]c2ccccc12)NC(=O)[C@H](CCCNC(=N)N)NC(=O)[C@@H](N)CCCNC(=N)N)C(C)C)C(C)C)C(C)C)C(C)C)C(C)C)C(C)C)C(C)C)C(=O)N[C@@H](CCCNC(=N)N)C(=O)N[C@@H](CCCNC(=N)N)C(=O)O` [WLBU2] (H-RRWVRRVRRWVRRVVRVVRRWVRR-OH; N-terminus and C-terminus assumed), the MIC is on record as 8 µM (≈ 27.2 µg/mL) with Acinetobacter baumannii (read-out: MIC), 4 µM (≈ 13.6 µg/mL) in the series on Pseudomonas aeruginosa and 4 µM (≈ 13.6 µg/mL) in the series on Staphylococcus aureus (read-out: MIC).
Take `CC1(C)S[C@@H]2[C@H](NC(=O)[C@H](N)c3ccccc3)C(=O)N2[C@H]1C(=O)O` [Ampicillin, ampicillin]: the MIC against Acinetobacter baumannii (Acinetobacter baumannii) is more than 256 µM; with Pseudomonas aeruginosa (setting [1]), more than 64 µM; against Staphylococcus aureus (Staphylococcus aureus), more than 256 µM.

B1: WLBU2-R-3: SELEX aptamer specific to WLBU2, SEQ No. 4 (nucleic acid)
DNA: AAAACGACGGCCAGTGCGCGCGCTTTGCTTGTGTGAGCATTGCTTTTGCATTATTGGTTTGGTTGGTGTGGTTCGTGCGCGCCATGGTCATAGCTGT
modifications: listed as DNA, chemistry not fully specified
B1 registered a FoldChange in the series with WLBU2 of 2.7.

B2: WLBU2-R-2: SELEX aptamer specific to WLBU2, SEQ No. 3 (nucleic acid)
DNA: AAAACGACGGCCAGTGGCTGGTAGGTTTGGGTGGTTTGGTTGGGATTCGGTTGGTTGGTACCAGCCATGGTCATAGCTGT
modifications: listed as DNA, chemistry not fully specified
In the case of B2, the FoldChange with WLBU2 is recorded as 3.67.

B3: WLBU2-R: SELEX aptamer specific to WLBU2, SEQ No. 1 in Table 2; thiol-modified at 3′-terminal for binding to gold nanoparticles (nucleic acid)
DNA: AAAACGACGGCCAGTGCGCGCGCTTTGCTTGTGTGAGCATTGCTTTTGCATTATTGGTTTGGTTGGTGTGGTTCGTGCGCGCCATGGTCATAGCCTGT
modifications: DNA, 3' {SH}, backbone and methylation of C not given here
Regarding B3, in the series on WLBU2, the FoldChange was 2.2.

B4: WLBU2-R-1: SELEX aptamer specific to WLBU2, SEQ No. 2 (nucleic acid)
DNA: AAAACGACGGCCAGTCTTTCGCGGGGTCTGGGGTTGGGGTTGTGGGTTAATTGCACTTCGAAATGCATGGTCATAGCTGT
modifications: listed as DNA, chemistry not fully specified
On to B4, for which the FoldChange in the series on WLBU2 was 3.28.
